Measured values from patent publication US4010149A, “Analogs of LH-RH and process for preparing the same” (Sankyo Company Limited, priority 1974, dated 1977).

system: ovulation; experiment: Ovulation inducing effect in proestrus rats (subcutaneous); type: in vivo, F. Wistar-Imamichi rats; conditions: subcutaneous injection at 4:00 p.m. on proestrus day; pentobarbital 30 mg/kg i.p. at 1:00 p.m.; five rats per dosage
Experimental: Examination of ovulation inducing effect
F. Wistar-Imamichi rats (body weight: around 250 g) were bred at room temperature (23° ±1° C) under an artificial light (on at 5:00 a.m. and off at 7:00 p.m.). Among these rats, the rats which had more than three times of four days sexual cycle were subjected to the test.
At 1:00 p.m. on proestrus days, pentobarbital sodium salt was intraperitoneally administered into each of rats (in the amount of 30 mg/kg). Then, at 4:00 p.m. of the same day, a test sample dissolved in 0.1 ml of isotonic sodium chloride solution was subcutaneously injected. Between noon and 1:00 p.m. of the next day, the rats were sacrified and the oviduct was immediately taken out. The oviduct was then placed between a couple of slide glasses and examined for ova through a microscope. The test was conducted by employing five rats for a certain dosage of test samples.

How did the “ED50 (ovulation inducing effect)” value turn out when `CCCC[C@@H](NC(=O)[C@H](Cc1ccc(O)cc1)NC(=O)[C@H](CO)NC(=O)[C@H](Cc1c[nH]c2ccccc12)NC(=O)[C@H](Cc1c[nH]cn1)NC(=O)CN(C)C(C)=O)C(=O)N[C@@H](CC(C)C)C(=O)N[C@@H](CCCNC(=N)N)C(=O)N1CCC[C@H]1C(=O)NCCF` [Compound B, N-Acetyl-N-methylglycyl-L-histidyl-L-tryptophyl-L-seryl-L-tyrosyl-D-norleucyl-L-leucyl-L-arginyl-L-proline-2-fluoroethylamide] was run?
Its value is 0.0125 μg/body.

For `CC(C)C[C@H](NC(=O)CNC(=O)[C@H](Cc1ccc(O)cc1)NC(=O)[C@H](CO)NC(=O)[C@H](Cc1c[nH]c2ccccc12)NC(=O)[C@H](Cc1c[nH]cn1)NC(=O)[C@@H]1CCC(=O)N1)C(=O)N[C@@H](CCCNC(=N)N)C(=O)N1CCC[C@H]1C(=O)NCC(N)=O` [Natural-type LH-RH (synthesized), L-pyroglutamyl-L-histidyl-L-tryptophyl-L-seryl-L-tyrosylglycyl-L-leucyl-L- arginyl-L-prolylglycine amide, reference compound], which “ED50 (ovulation inducing effect)” value is on record?
Its value is 0.134 μg/body.

“N-Acetyl-N-methylglycyl-L-histidyl-L-tryptophyl-L-seryl-L-tyrosyl-D-alanyl-L-leucyl-L-arginyl-L-prolineethylamide [Compound A]” was tested. Which “ED50 (ovulation inducing effect)” value did it give?
The value was 0.018 μg/body.
